From patent US20240382521A1, “METHODS OF ENGINEERING IMMUNE CELLS HAVING REDUCED FRATRICIDAL ACTIVITY” (Baylor College of Medicine, priority 2021, published 2024)

Columns and labels:
CD5 CAR T-cells = assay: Expansion of CD5 CAR T-cells in the presence of kinase inhibitors; assay type: cell-based, human; details: for frequencies of minimally differentiated, naïve-like T-cells (differentiation of CD5 CAR T-cells): inhibitor added on day of viral transduction, replenished every 2-3 days, vs control CD5 CAR T-cells expanded in the absence of inhibitors, FIG. 1A
Source text: Pazopanib and gefitinib had less impact on the differentiation of CD5 CAR T-cells. […] No such effect was observed upon expansion of control non-transduced T-cells in the presence of the same inhibitors, indicating the effect is CAR-specific.

CYP3A = details: cited from earlier work

| Structure (SMILES) | frequencies of minimally differentiated, naïve-like T-cells (differentiation of CD5 CAR T-cells) (CD5 CAR T-cells) | metabolism in the liver by the CYP3A (CYP3A) | CD5 CAR T-cell expansion (CD5 CAR T-cells; in presence of inhibitor, compared with non-transduced control T-cells, FIG. 1B) |
| --- | --- | --- | --- |
| COc1cc2ncnc(Nc3ccc(F)c(Cl)c3)c2cc1OCCCN1CCOCC1 [gefitinib] | less impact |  |  |
| Cc1nc(Nc2ncc(C(=O)Nc3c(C)cccc3Cl)s2)cc(N2CCN(CCO)CC2)n1 [dasatinib] |  | extensive metabolism |  |
| CC(C)(C)n1nc(-c2ccc(Cl)cc2)c2c(N)ncnc21 [pp2] | higher frequencies |  | promoted robust CD5 CAR T-cell expansion |
